For series [1], the system named is Human immunodeficiency virus 1. Put plainly: Antiviral activity against wild type HIV-1 3B infected in human MT4 cells assessed as protection against virus-induced cytopathogenicity after 5 days by MTT assay. It counts as functional, organism-based. The conditions noted are these: Human immunodeficiency virus 1, 3B, MT4, 120 h.
The subject of series [2] is Human immunodeficiency virus 1. Put plainly: Antiviral activity against HIV-1 RESO56 harboring RT K103N/Y181C double mutant infected in human MT4 cells assessed as protection against virus-induced cytopathogenicity after 5 days by MTT assay. It counts as functional, organism-based. The conditions noted are these: Human immunodeficiency virus 1, RESO56, MT4, 120 h.
Series [3] can be described thus: Cytotoxicity against human MT4 cells assessed as cell viability after 5 days by MTT assay. It counts as cell-based.
Series [4] can be described thus: Selectivity index, ratio of CC50 for human MT4 cells to EC50 for wild type HIV-1 3B infected in human MT4 cells. It counts as toxicity, cell-based. The conditions noted are these: read-out: Ratio CC50/EC50.
Series [5] concerns Human immunodeficiency virus 2. The experiment in a line: Antiviral activity against HIV-2 ROD infected in human MT4 cells assessed as protection against virus-induced cytopathogenicity after 5 days by MTT assay. The conditions noted are these: Human immunodeficiency virus 2, ISOLATE ROD, MT4, 120 h. It counts as functional, organism-based.
In series [6] the target is Human immunodeficiency virus type 1 reverse transcriptase (Human immunodeficiency virus 1, UniProt Q72547). The experiment in a line: Inhibition of recombinant wild type HIV-1 reverse transcriptase p66/p51 expressed in Escherichia coli JM109 using poly(rA)/oligo(dT)16 (1:1.2) as template/primer after 40 mins by spectrofluorometric analysis.
For series [7], the system named is Human immunodeficiency virus 1. The experiment in a line: Potency index, ratio of DDI EC50 to compound EC50 for wild type HIV-1 3B infected in human MT4 cells. It counts as functional.

As for `O=C1Nc2ccc(Cl)cc2[C@@](C#CC2CC2)(C(F)(F)F)O1` [EFAVIRENZ], the EC50 worked out at 6.7 nM in series [1] and 0.46 µM in series [2]. For the same compound, the CC50 at 120 h in series [3] worked out at 6.34 µM.

For the compound `COc1ccc(CSc2nc(C(=O)c3ccc(Br)cc3)c(C(C)C)c(=O)[nH]2)cc1`, the EC50 in series [1] was at least 42500 nM; in series [5] it was above 42.5 µM. For the same compound, in series [3], the CC50 at 120 h is 42.5 µM. Further, the selectivity ratio in series [4] is at most 1.

For the compound `CCc1c(C(=O)c2cccc(Br)c2)nc(SCc2ccc(OC)cc2)[nH]c1=O`, the EC50 in series [1] was 1180 nM; in series [2], above 98.9 µM; in series [5], above 98.9 µM. Also, in series [3], the CC50 at 120 h came out at 98.9 µM. In addition, in series [4], the selectivity ratio came to 84.

Take `CC(C)Nc1cccnc1N1CCN(C(=O)c2cc3cc(NS(C)(=O)=O)ccc3[nH]2)CC1` [DELAVIRDINE]: the 50% effective concentration (EC50) in series [1] is 95 nM; in series [2] it was above 36.2 µM. In addition, in series [3], the CC50 at 120 h turned out to be 36.2 µM. The selectivity ratio in series [4] is 379.

Regarding `COc1ccc(CSc2nc(C(=O)c3cccc(F)c3)c(C(C)C)c(=O)[nH]2)cc1`, the IC50 in series [6] came to 40 nM. Moreover, the EC50 in series [1] was 290 nM; in series [2], above 132 µM; in series [5], above 132 µM. In addition, the CC50 at 120 h in series [3] was 132 µM. The selectivity ratio in series [4] turned out to be 472. For the same compound, the “Ratio EC50” value in series [7] came out at 50.

For the compound `COc1ccc(CSc2nc(C(=O)c3cccc(F)c3)c(C)c(=O)[nH]2)cc1`, the EC50 in series [1] was 6350 nM; in series [2], above 225 µM; in series [5] it was above 225 µM. Also, the CC50 at 120 h in series [3] came to 225 µM. In addition, the selectivity ratio in series [4] was determined as 35.

`COc1ccc(CSc2nc(C(=O)c3ccc(Cl)cc3)c(C)c(=O)[nH]2)cc1`: the EC50 in series [1] was at least 151000 nM; in series [5], above 151 µM. Besides, in series [3], the CC50 at 120 h was at least 151 µM.

For the compound `COc1ccc(CSc2nc(C(=O)c3ccc(F)c(F)c3)c(C)c(=O)[nH]2)cc1`, the EC50 in series [1] is at least 127000 nM; in series [2] it was above 127 µM; in series [5], above 127 µM. In addition, the CC50 at 120 h in series [3] was 127 µM. In addition, the selectivity ratio in series [4] is at most 1.

`COc1ccc(CSc2nc(C(=O)c3ccccc3F)c(C)c(=O)[nH]2)cc1`: the IC50 in series [6] was 2410 nM. Further, the EC50 in series [1] was 1400 nM; in series [2] it was above 175 µM; in series [5] it was above 175 µM. In series [3], the CC50 at 120 h came out at 175 µM. The selectivity ratio in series [4] was determined as 124.

Take `Cc1ccnc2c1NC(=O)c1cccnc1N2C1CC1` [NEVIRAPINE]: the EC50 came out at 84 nM in series [1] and 1.97 µM in series [2]. Moreover, in series [3], the CC50 at 120 h is 15 µM.

`COc1ccc(CSc2nc(C(=O)c3ccc(F)cc3)c(C)c(=O)[nH]2)cc1`: the EC50 in series [1] was at least 325000 nM; in series [5] it was above 325 µM. Moreover, the half-maximal cytotoxic concentration (CC50) at 120 h in series [3] was at least 325 µM.

Consider `COc1ccc(CSc2nc(C(=O)c3cc(F)cc(F)c3)c(C)c(=O)[nH]2)cc1`, for which the EC50 in series [1] was 2710 nM; in series [2] it was above 86.9 µM; in series [5], above 86.9 µM. Besides, the CC50 at 120 h in series [3] came out at 86.9 µM. For the same compound, the selectivity ratio in series [4] is 32.

For `COc1ccc(CSc2nc(C(=O)c3cccc(Cl)c3)c(C)c(=O)[nH]2)cc1`, the EC50 was 7210 nM in series [1], above 152 µM in series [2] and above 152 µM in series [5]. Further, the CC50 at 120 h in series [3] stood at 152 µM. Also, in series [4], the selectivity ratio worked out at 21.

With `CCc1c(C(=O)c2cc(F)cc(F)c2)nc(SCc2ccc(OC)cc2)[nH]c1=O`, the IC50 in series [6] was determined as 160 nM. Moreover, the EC50 in series [1] is 260 nM; in series [2] it was above 139 µM; in series [5], above 139 µM. Besides, the CC50 at 120 h in series [3] was determined as 139 µM. In series [4], the selectivity ratio came to 541. Moreover, in series [7], the “Ratio EC50” value was determined as 50.

Consider `COc1ccc(CSc2nc(C(=O)c3ccccc3F)c(C(C)C)c(=O)[nH]2)cc1`, for which, in series [6], the IC50 came to 72 nM. Besides, the EC50 was 270 nM in series [1], above 38.2 µM in series [2] and above 38.2 µM in series [5]. Also, in series [3], the CC50 at 120 h amounted to 38.2 µM. The selectivity ratio in series [4] came out at 145. Further, the “Ratio EC50” value in series [7] came to 50.

Regarding `COc1ccc(CSc2nc(C(=O)c3ccc(Br)cc3)c(C)c(=O)[nH]2)cc1`, the EC50 in series [1] is at least 252000 nM; in series [5], above 252 µM. The CC50 at 120 h in series [3] worked out at 252 µM. In addition, the selectivity ratio in series [4] was at most 1.

As to `Nc1ccn([C@H]2CC[C@@H](CO)O2)c(=O)n1` [ZALCITABINE], the EC50 in series [1] is 460 nM. The CC50 at 120 h in series [3] is 94.7 µM. Besides, the selectivity ratio in series [4] came to 208.

For the compound `Cc1cn([C@H]2C[C@H](N=[N+]=[N-])[C@@H](CO)O2)c(=O)[nH]c1=O` [ZIDOVUDINE], the EC50 amounted to 5.9 nM in series [1], 0.0066 µM in series [2] and 0.0064 µM in series [5]. For the same compound, in series [4], the selectivity ratio was 15800.

On to `COc1ccc(CSc2nc(C(=O)c3ccc(F)cc3)c(C(C)C)c(=O)[nH]2)cc1`, for which the EC50 in series [1] is 6520 nM; in series [2] it was above 135 µM; in series [5], above 135 µM. In series [3], the CC50 at 120 h worked out at 135 µM. Besides, in series [4], the selectivity ratio was found to be 21.

For the compound `COc1ccc(CSc2nc(C(=O)c3cccc(Br)c3)c(C)c(=O)[nH]2)cc1`, the EC50 in series [1] was 16000 nM; in series [2], above 201 µM; in series [5], above 201 µM. For the same compound, the CC50 at 120 h in series [3] turned out to be 201 µM. The selectivity ratio in series [4] came to 13.

With `CCc1c(C(=O)c2cccc(F)c2)nc(SCc2ccc(OC)cc2)[nH]c1=O`, the IC50 in series [6] is 190 nM. Also, the EC50 in series [1] was 380 nM; in series [2], above 167 µM; in series [5], above 167 µM. The CC50 at 120 h in series [3] is 167 µM. Besides, in series [4], the selectivity ratio stood at 436. Besides, the “Ratio EC50” value in series [7] is 50.

As for `COc1ccc(CSc2nc(C(=O)c3ccc(C(C)(C)C)cc3)c(C)c(=O)[nH]2)cc1`, the EC50 is at least 126000 nM in series [1] and above 126 µM in series [5]. Also, the CC50 at 120 h in series [3] was 126 µM. In addition, in series [4], the selectivity ratio was at most 1.

Take `O=c1[nH]cnc2c1ncn2[C@H]1CC[C@@H](CO)O1` [DIDANOSINE]: the EC50 in series [1] was determined as 17200 nM; in series [5], 15.3 µM. The CC50 at 120 h in series [3] was 212 µM. Moreover, the selectivity ratio in series [4] is 12.

Values taken from ChEMBL document CHEMBL2440034, “Towards new C6-rigid S-DABO HIV-1 reverse transcriptase inhibitors: synthesis, biological investigation and molecular modeling studies” (Bioorg Med Chem, 2013).
